Experimental data taken from patent publication US20040123342A1, “Monocotyledonous plant transformation” (Sugar Research & Development Corporation, priority 2000, published 2004).

Tests used:
[1] = test system: TS leaf whorl explants obtained from the Q187 and Q124 sugarcane cultivars; experiment: Cross-testing of NAA and BA concentrations for shoot regeneration from thin section leaf whorl explants; assay type: cell-based; settings: for optimal concentration in culture medium for regeneration: Q187 and Q124 TS leaf whorl explants
Protocol: Murashige & Skoog (MS) nutrient formulation supplemented with 30 g/L sucrose and 7.5 g/L Difco agar was used as the basal culture medium. Basal medium was, for certain phases of culture as will be described below, enriched with the cytokinin N^6-benzylaminopurine (BA) and the auxin a-napthaleneacetic acid NAA) together with anti-oxidants such as citric acid (CA), ascorbic acid (AA), or dithiothreitol (DTT). The pH of the medium was adjusted to 5.7 before autoclaving at 11kPa for 20 minutes at 120° C. TS explants were cultured in various orientations either in tissue culture dishes (90×14 mm) with 40 ml agar- solidified medium or in a 100 mL baby food jar containing 40 ml liquid medium, or on membrane rafts with flotation kept in a polypropylene container with 40 ml liquid medium. Liquid cultures were agitated continuously on a gyratory shaker at 120 rpm. All cultures were incubated at […] under 16 hr photoperiod provided by cool, white fluorescent tubes, Subculturing was carried out at least once a week, or more frequently if medium or TS turned brown due to phenolic exudation. Cross-testing of NAA and BA concentrations was also performed using TS leaf whorl explants obtained from the […] and […] sugarcane cultivars. […] However, higher concentrations of NAA (10-40 μM) promoted a slightly […] percentage of explants producing shoots. There was no clear trend in terms of the number of shoots produced with regard to either NAA or BA concentration, Generally, 4 μM BA was preferred at any given concentration of NAA, while NAA was optimal when present in culture medium at a concentration of 10 μM.

[2] = test system: leaf TS explants (sugarcane cultivar Q165); experiment: Effect of selection agent on shoot regeneration from bombarded leaf TS explants; assay type: cell-based; settings: 100 mg/L in medium, transfer at 3 days after bombardment
Protocol: Sugarcane leaf sheath tissue taken from just above the meristem was taken from cultivar Q165 plants. Transverse thin section explants (2-3 mm) of leaf whorl were obtained from the harvested tissue. These are generally referred to as leaf thin sections.
A number of preliminary experiments were performed to detennije parametens which provided optimal regeneration from transformed tissue while providing optimal selection of transformants.
Similar results were obtained when bombarded TS explants were transferred to medium containing even low levels of selection agent.

Compound | optimal concentration in culture medium for regeneration [1] [µM] | regeneration efficiency, 4 μM vs 8 μM BA ([1]; cultivar Q124, any of the regeneration criteria examined) | regeneration efficiency, 4 μM vs 8 μM BA ([1]; cultivar Q187, TS leaf whorl explants) | percentage of explants producing shoots ([1]; higher concentrations of NAA (10-40 μM)) | shoot regeneration [2]
c1ccc(CNc2ncnc3nc[nH]c23)cc1 [BA, N^6-benzylaminopurine] | 4 | no clear preference | 4 μM BA was clearly more efficient than 8 μM BA | – | –
O=C(O)Cc1cccc2ccccc12 [NAA, a-napthaleneacetic acid] | 10 | – | – | slightly hither percentage of explants producing shoots | –
paromomycin sulphate | – | – | – | – | no shoot regeneration
